Laboratory results taken from patent US10202356B2, “JAK2 and ALK2 inhibitors and methods for their use” (Tolero Pharmaceuticals, Inc., priority 2013, dated 2019).
Like-named read-outs stand apart in the source and are kept apart here. Each block holds one compound with its values, some of them ahead of it.

Legend:
[1] = Pharmacokinetic profile, IV and PO administration; assay type: in vivo, female rats; design: AUC 0-inf: concentration or dose not given beside the values; details: for half-life: read-out: t½ (converted)
[2] = target: T1, JAK2 kinase (Homo sapiens, UniProt O60674); assay: JAK2 kinase assay, Z'-LYTE technology; assay type: biochemical
T1 construct: purchased Life Technologies (Drug Discovery and Development Services, Madison, Wis.)
Method: (§1) Biochemical assays to measure the inhibitory effects of the compounds were performed by the Drug Discovery and Development Services at Life Technologies (Madison, Wis.). JAK2 kinase assays were performed using Z′-LYTE® technology, while ALK2 inhibition was tested using a LanthaScreen® binding assay.

[3] = target: T2, ALK2 (Homo sapiens, UniProt Q04771); assay: ALK2 inhibition, LanthaScreen binding assay
T2 construct: purchased Life Technologies (Drug Discovery and Development Services, Madison, Wis.)
T2 sequence (Q04771 21-509): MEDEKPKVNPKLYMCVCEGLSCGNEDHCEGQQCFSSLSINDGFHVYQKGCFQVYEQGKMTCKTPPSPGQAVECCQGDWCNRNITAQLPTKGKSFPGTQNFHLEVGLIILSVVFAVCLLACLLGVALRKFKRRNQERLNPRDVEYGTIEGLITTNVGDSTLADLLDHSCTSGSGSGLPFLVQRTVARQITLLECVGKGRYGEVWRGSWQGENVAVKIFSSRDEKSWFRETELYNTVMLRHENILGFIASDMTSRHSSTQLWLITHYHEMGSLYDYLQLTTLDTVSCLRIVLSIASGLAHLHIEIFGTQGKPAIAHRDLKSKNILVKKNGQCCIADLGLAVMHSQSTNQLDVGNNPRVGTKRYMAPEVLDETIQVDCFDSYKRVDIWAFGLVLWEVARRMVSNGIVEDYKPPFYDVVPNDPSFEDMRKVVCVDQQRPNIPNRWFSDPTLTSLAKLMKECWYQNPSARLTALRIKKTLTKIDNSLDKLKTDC
Method: as §1

[4] = system: hepcidin expression; assay: Liver hepcidin expression in mice after single oral dose, real-time RT-PCR; assay type: in vivo; details: single oral dose 250 mg/kg, liver mRNA after six hours
Method: Hepcidin expression in the mice treated with compounds 4 and 12 was compared to hepcidin expression in mice treated with compound A. In this experiment, mice were treated orally with a single dose of test compound. After six hours, livers were removed from euthanized animals and RNA extracted. Hepcidin mRNA levels were determined by real-time RT-PCR as described above.

[5] = system: hepcidin expression induced by BMP2 in HEPG2 cells; assay: BMP2-induced hepcidin expression in HEPG2 cells; assay type: cell-based; details: 0.3 μM
[6] = system: hepcidin expression of HEPG2 cells; assay: Baseline hepcidin expression in HEPG2 cells, real-time RT-PCR; assay type: cell-based; details: 3 μM, 6 hours, HEPG2, normalized to β-actin
Method: Hepcidin expression of HEPG2 cells treated with exemplary compounds of the invention was tested. […] To observe the ability of the compounds to effect baseline hepcidin expression, HEPG2 (hepatocellular carcinoma) cells were treated with compound for 6 hours and then assayed for hepcidin expression by real-time RT-PCR (normalized to levels of β-actin). Hepcidin expression was lowered in a dose dependent manner. Hepcidin expression was inhibited by 90% at a 3 μM concentration of Compound 12. […] In contrast, Compound 7 treated cells produced a 50% decrease in the induction when treated at 0.3 μM.

[7] = PO, free base or salt form as labelled

T1 sequence (O60674 whole entry): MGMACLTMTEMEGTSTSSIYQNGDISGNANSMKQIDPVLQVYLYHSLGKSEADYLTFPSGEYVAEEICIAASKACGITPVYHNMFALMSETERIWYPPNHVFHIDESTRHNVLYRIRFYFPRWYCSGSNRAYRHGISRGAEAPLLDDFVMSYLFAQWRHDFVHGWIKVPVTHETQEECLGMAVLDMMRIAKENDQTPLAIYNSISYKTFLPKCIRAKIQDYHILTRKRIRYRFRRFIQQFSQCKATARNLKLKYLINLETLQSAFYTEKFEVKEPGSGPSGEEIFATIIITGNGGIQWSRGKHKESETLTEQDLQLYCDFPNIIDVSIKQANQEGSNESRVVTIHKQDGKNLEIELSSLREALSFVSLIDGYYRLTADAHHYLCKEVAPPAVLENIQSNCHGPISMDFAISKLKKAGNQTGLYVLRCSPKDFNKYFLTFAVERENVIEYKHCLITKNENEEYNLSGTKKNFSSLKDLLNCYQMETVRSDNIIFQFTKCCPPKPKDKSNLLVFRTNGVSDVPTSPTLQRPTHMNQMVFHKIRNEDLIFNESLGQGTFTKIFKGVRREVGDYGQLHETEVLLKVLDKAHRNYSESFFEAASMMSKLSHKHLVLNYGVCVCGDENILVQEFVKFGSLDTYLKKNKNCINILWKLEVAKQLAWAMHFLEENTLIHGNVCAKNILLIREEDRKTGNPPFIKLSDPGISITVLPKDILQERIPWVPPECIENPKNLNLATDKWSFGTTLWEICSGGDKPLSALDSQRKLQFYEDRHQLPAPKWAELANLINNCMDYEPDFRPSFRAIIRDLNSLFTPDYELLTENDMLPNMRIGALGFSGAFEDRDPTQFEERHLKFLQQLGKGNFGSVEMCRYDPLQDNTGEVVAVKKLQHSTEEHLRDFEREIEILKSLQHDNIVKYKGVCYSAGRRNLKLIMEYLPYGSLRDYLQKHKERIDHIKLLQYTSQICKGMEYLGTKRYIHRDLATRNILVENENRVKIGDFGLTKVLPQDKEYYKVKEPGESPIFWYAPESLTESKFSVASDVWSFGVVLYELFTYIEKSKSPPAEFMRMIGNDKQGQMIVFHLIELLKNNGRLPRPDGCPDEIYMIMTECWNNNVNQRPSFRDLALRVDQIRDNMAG

Compound: CC(=O)O [Acetate]
- AUC 0-inf [1, 7]: 1200.1 ng·h/mL
- Cmax [1, 7]: 176.8 ng/mL
- F [1, 7]: 24.7 % IV
- Tmax [1, 7]: 0.5 h
- t½ [1, 7]: 5.8 h

Compound: Cc1cnc(Nc2ccc(N3CCN(C)CC3)c(F)c2)nc1Nc1cccc(CC#N)c1 [Compound 2, 2-(3-((2-((3-fluoro-4-(4-methylpiperazin-1-yl)phenyl)amino)-5-methylpyrimidin-4-yl)amino)phenyl)acetonitrile]
- IC50 [2]: > 1000 nM
- IC50 [3]: > 1000 nM

Compound: CN1CCN(c2ccc(Nc3ncc(C#N)c(Nc4cccc(CC#N)c4)n3)cc2F)CC1 [Compound 3, 4-((3-(cyanomethyl)phenyl)amino)-2((3-fluoro-4-(4-methylpiperazin-1-yl)phenyl)amino)pyrimidine-5-carbonitrile]
- IC50 [2]: > 1000 nM
- IC50 [3]: > 1000 nM

Compound: COc1cc(Nc2nccc(Nc3cccc(C4(C#N)CC4)c3)n2)cc(OC)c1OC [Compound 5, 1-(3-(2-(3,4,5-trimethoxyphenylamino)pyrimidin-4-ylamino)phenyl)cyclopropanecarbonitrile]
- IC50 [2]: < 10 nM
- IC50 [3]: > 1000 nM

Compound: CN1CCN(c2ccc(Nc3nccc(Nc4cccc(C5(C#N)CC5)c4)n3)cc2F)CC1 [Compound 8, 1-(3-((2-((3-fluoro-4-(4-methylpiperazin-1-yl)phenyl)amino)pyrimidin-4-yl)amino)phenyl)cyclopropanecarbonitrile]
- IC50 [2]: < 10 nM
- IC50 [3]: 10 to 1000 nM

Compound: COc1cnc(Nc2ccc(N3CCN(CCO)CC3)c(Cl)c2)nc1Nc1cccc(C2(C#N)CC2)c1 [Compound 9, 1-(3-(2-(3-chloro-4-(4-(2-hydroxyethyl)piperazin-1-yl)phenylamino)-5-methoxypyrimidin-4-ylamino)phenyl)cyclopropanecarbonitrile]
- IC50 [2]: 10 to 1000 nM
- IC50 [3]: > 1000 nM

Compound: COc1cc(Nc2ncc(OC)c(Nc3cccnc3-c3ccccn3)n2)ccc1N1CCN(C)CC1 [Compound 14, N^4-([2,2′-bipyridin]-3-yl)-5-methoxy-N^2-(3-methoxy-4-(4-methylpiperazin-1-yl)phenyl)pyrimidine-2,4-diamine]
- IC50 [2]: 10 to 1000 nM
- IC50 [3]: > 1000 nM

Compound: COc1cc(Nc2nccc(Nc3ccc(C)nc3-c3ccccn3)n2)ccc1N1CCN(C)CC1 [Compound 16, N^2-(3-methoxy-4-(4-methylpiperazin-1-yl)phenyl)-N^4-(6-methyl-2,2′-bipyridin-3-yl)pyrimidine-2,4-diamine]
- IC50 [2]: > 1000 nM
- IC50 [3]: 10 to 1000 nM

Compound: COc1cc(Nc2nccc(Nc3ccc(C)cc3CC#N)n2)ccc1N1CCN(C)CC1 [Compound 19, 2-(2-(2-(3-methoxy-4-(4-methylpiperazin-1-yl)phenylamino)pyrimidin-4-ylamino)-5-methylphenyl)acetonitrile]
- IC50 [2]: 10 to 1000 nM
- IC50 [3]: 10 to 1000 nM

Compound: O=C(O)C(O)C(O)C(=O)O (stereo not drawn) [Tartaric]
- AUC 0-inf [1, 7]: 370.9 ng·h/mL
- Cmax [1, 7]: 18.5 ng/mL
- Tmax [1, 7]: 0.3 h

Compound: Citrate
- AUC 0-inf [1, 7]: 801.5 ng·h/mL
- Cmax [1, 7]: 93.4 ng/mL
- F [1, 7]: 22.4 % IV
- Tmax [1, 7]: 0.5 h
- t½ [1, 7]: 6.8 h

Compound: Maleate
- AUC 0-inf [1, 7]: 484.8 ng·h/mL
- Cmax [1, 7]: 34.2 ng/mL
- F [1, 7]: 12.1 % IV
- Tmax [1, 7]: 8.0 h
- t½ [1, 7]: 8.5 h

Compound: Oxalate
- AUC 0-inf [1, 7]: 721.2 ng·h/mL
- Cmax [1, 7]: 81.9 ng/mL
- F [1, 7]: 17.3 % IV
- Tmax [1, 7]: 0.5 h
- t½ [1, 7]: 7.3 h

More lines, main results first:

- IC50 [2]: > 1000 nM
- IC50 [3]: > 1000 nM
Compound: CN1CCN(c2ccc(Nc3ncc(Cl)c(Nc4cccc(CC#N)c4)n3)cc2F)CC1 [Compound 1, 2-(3-((5-chloro-2((3-fluoro-4-(4-methylpiperazin-1-yl)phenyl)amino)pyrimidin-4-yl)amino)phenyl)acetonitrile]

- IC50 [2]: < 10 nM
- F ([1]; IV): 100.0 % IV
- F [1, 7]: 15.4 % IV
- plasma concentration levels after 24 hours ([1]; female rats): remain high
- AUC 0-inf ([1]; female, rat, plasma, iv, read-out: AUC 0-inf): 1380 ng·h/mL
- Cmax ([1]; female, rat, plasma, iv, read-out: Cmax): 996 ng/mL
- Tmax ([1]; female, rat, plasma, iv, read-out: Tmax): 0 h
- half-life ([1]; female, rat, plasma, iv): 9.2 h
- AUC 0-inf ([1]; female, rat, plasma, PO, free base or salt form as labelled, read-out: AUC 0-inf): 852 ng·h/mL
- Cmax ([1]; female, rat, plasma, PO, free base or salt form as labelled, read-out: Cmax): 118 ng/mL
- Tmax ([1]; female, rat, plasma, PO, free base or salt form as labelled, read-out: Tmax): 2 h
- half-life ([1]; female, rat, plasma, PO, free base or salt form as labelled): 6.5 h
- IC50 [3]: 10 to 1000 nM
Compound: COc1cc(Nc2nccc(Nc3cccc(C4(C#N)CC4)c3)n2)ccc1N1CCN(C)CC1 [Compound 4, 1-(3-(2-(3-methoxy-4-(4-methylpiperazin-1-yl)phenylamino)pyrimidin-4-ylamino)phenyl)cyclopropanecarbonitrile]
- hepcidin expression in mice compared to compound A [4]: inhibit hepcidin expression to a greater extent than compound A

- IC50 [2]: < 10 nM
- IC50 [3]: 10 to 1000 nM
Compound: N#CC1(c2cccc(Nc3ccnc(Nc4ccc(N5CCN(CCO)CC5)c(Cl)c4)n3)c2)CC1 [Compound 7, 1-(3-((2-((3-chloro-4-(4-(2-hydroxyethyl)piperazin-1-yl)phenyl)amino)pyrimidin-4-yl)amino)phenyl) cyclopropanecarbonitrile]
- decrease in the BMP2 induction of hepcidin [5]: 50%

- IC50 [2]: 10 to 1000 nM
- IC50 [3]: 10 to 1000 nM
Compound: OCCN1CCN(c2ccc(Nc3nccc(Nc4cccnc4-c4ccccn4)n3)cc2Cl)CC1 [Compound 10, 2-(4-(4-(4-(2,2′-bipyridin-3-ylamino)pyrimidin-2-ylamino)-2-chlorophenyl)piperazin-1-yl)ethanol]

- IC50 [2]: > 1000 nM
- IC50 [3]: < 10 nM
Compound: COc1cc(Nc2nccc(Nc3cccnc3-c3ccccn3)n2)ccc1N1CCN(C)CC1 [Compound 11, N^4-(2,2′-bipyridin-3-yl)-N^2-(3-methoxy-4-(4-methylpiperazin-1-yl)phenyl)pyrimidine-2,4-diamine]

- IC50 [2]: > 1000 nM
- plasma concentration levels after 24 hours ([1]; female rats): remained high
- bioavailability ([1]; rat, plasma, female rats, oral dose): 95%
- IC50 [3]: < 10 nM
Compound: COc1cc(Nc2nccc(Nc3cccnc3-c3ccccn3)n2)cc(OC)c1OC [Compound 12, N^4-(2,2′-bipyridin-3-yl)-N^2-(3,4,5-trimethoxyphenyl)pyrimidine-2,4-diamine]
- Hepcidin expression inhibited [6]: 90%

- IC50 [2]: > 1000 nM
- IC50 [3]: > 1000 nM
Compound: COc1cnc(Nc2ccc(N3CCN(CCO)CC3)c(Cl)c2)nc1Nc1cccnc1-c1ccccn1 [Compound 13, 2-(4-(4-(4-(2,2′-bipyridin-3-ylamino)-5-methoxypyrimidin-2-ylamino)-2-chlorophenyl)piperazin-1-yl)ethanol]

- IC50 [2]: > 1000 nM
- IC50 [3]: 10 to 1000 nM
Compound: Cc1ccc(Nc2ccnc(Nc3ccc(N4CCN(CCO)CC4)c(Cl)c3)n2)c(-c2ccccn2)n1 [Compound 15, 2-(4-(2-chloro-4-(4-(6-methyl-2,2′-bipyridin-3-ylamino)pyrimidin-2-ylamino)phenyl)piperazin-1-yl)ethanol]

- IC50 [2]: > 1000 nM
- IC50 [3]: 10 to 1000 nM
Compound: COc1cc(Nc2nccc(Nc3ccc(C)nc3-c3ccccn3)n2)cc(OC)c1OC [Compound 17, N^4-(6-methyl-2,2′-bipyridin-3-yl)-N^2-(3,4,5-trimethoxyphenyl)pyrimidine-2,4-diamine]

- IC50 [2]: 10 to 1000 nM
- IC50 [3]: 10 to 1000 nM
Compound: Cc1ccc(Nc2ccnc(Nc3ccc(N4CCN(CCO)CC4)c(Cl)c3)n2)c(CC#N)c1 [Compound 18, 2-(2-(2-(3-chloro-4-(4-(2-hydroxyethyl)piperazin-1-yl)phenylamino)pyrimidin-4-ylamino)-5-methylphenyl)acetonitrile]

- IC50 [2]: < 10 nM
- IC50 [3]: 10 to 1000 nM
Compound: COc1cc(Nc2nccc(Nc3ccc(C)c(CC#N)c3)n2)ccc1N1CCN(C)CC1 [Compound 21, 2-(5-(2-(3-methoxy-4-(4-methylpiperazin-1-yl)phenylamino)pyrimidin-4-ylamino)-2-methylphenyl)acetonitrile]

- IC50 [2]: 10 to 1000 nM
- IC50 [3]: 10 to 1000 nM
Compound: N#CCc1cc(F)ccc1Nc1ccnc(Nc2ccc(N3CCN(CCO)CC3)c(Cl)c2)n1 [Compound 22, 2-(2-(2-(3-chloro-4-(4-(2-hydroxyethyl)piperazin-1-yl)phenylamino)pyrimidin-4-ylamino)-5-fluorophenyl) acetonitrile]

- AUC 0-inf [1, 7]: 538.3 ng·h/mL
- Cmax [1, 7]: 53.8 ng/mL
- F [1, 7]: 17.8 % IV
- Tmax [1, 7]: 1.0 h
- t½ [1, 7]: 9.2 h
Compound: H2SO4 [Compound H2SO4]
